Assay results: ChEMBL document CHEMBL1146971, “Discovery of novel heterocyclic factor VIIa inhibitors” (Bioorg Med Chem Lett, 2006)

Assays:
Coagulation factor VII = target: T1, Coagulation factor VII (Homo sapiens, UniProt P08709); experiment: Binding affinity to f7a
T1 sequence (P08709 whole entry): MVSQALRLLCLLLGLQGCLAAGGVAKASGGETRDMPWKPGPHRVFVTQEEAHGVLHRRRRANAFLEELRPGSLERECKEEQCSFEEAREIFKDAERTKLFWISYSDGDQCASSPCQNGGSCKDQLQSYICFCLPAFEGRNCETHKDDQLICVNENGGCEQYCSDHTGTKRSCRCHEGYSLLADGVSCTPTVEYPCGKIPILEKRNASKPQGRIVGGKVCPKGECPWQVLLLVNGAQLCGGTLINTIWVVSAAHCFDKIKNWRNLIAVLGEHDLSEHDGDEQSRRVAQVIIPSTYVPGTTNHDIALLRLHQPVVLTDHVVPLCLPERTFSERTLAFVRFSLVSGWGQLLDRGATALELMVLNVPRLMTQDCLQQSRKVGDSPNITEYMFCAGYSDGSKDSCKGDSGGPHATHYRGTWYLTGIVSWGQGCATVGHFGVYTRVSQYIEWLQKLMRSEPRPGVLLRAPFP

Homo sapiens = species: Homo sapiens; experiment: Selectivity for f7a over trypsin
Coagulation factor X = Coagulation factor X (Homo sapiens, UniProt P00742); experiment: Binding affinity to f10a
Prothrombin = Prothrombin (Homo sapiens, UniProt P00734); experiment: Binding affinity to thrombin
Trypsin = Trypsin (Homo sapiens, UniProt P07477+P07478+P35030); experiment: Binding affinity to trypsin; assay type: protein assay

Chain of Coagulation factor X (P00742 41-179 limits assumed): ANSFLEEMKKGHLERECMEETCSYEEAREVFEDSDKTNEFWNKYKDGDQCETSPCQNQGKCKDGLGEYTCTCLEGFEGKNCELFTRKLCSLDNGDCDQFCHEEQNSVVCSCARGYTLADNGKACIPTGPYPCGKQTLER
Chain of Coagulation factor X (P00742 235-488 limits assumed): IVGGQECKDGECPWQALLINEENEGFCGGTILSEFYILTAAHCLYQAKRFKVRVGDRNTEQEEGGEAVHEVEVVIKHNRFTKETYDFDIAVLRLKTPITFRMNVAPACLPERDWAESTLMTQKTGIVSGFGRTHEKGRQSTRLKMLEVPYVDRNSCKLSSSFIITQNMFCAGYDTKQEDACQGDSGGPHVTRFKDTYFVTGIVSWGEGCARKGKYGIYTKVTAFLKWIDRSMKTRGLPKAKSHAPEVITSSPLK

Row | Compound | Ki (Coagulation factor VII) | Selectivity ratio (Homo sapiens) | Ki (Coagulation factor X) | Ki (Prothrombin) | Ki (Trypsin)
1 | NC(=O)Nc1cccc(-c2cc(CC(=O)O)cc(-c3cc4[nH]c(N)ccc-4n3)c2O)c1 | 12 µM | > 13 | – | – | –
2 | N=C(N)c1ccc2[nH]c(-c3cc(CC(=O)O)cc(-c4cccc([N+](=O)[O-])c4)c3O)nc2c1 | – | – | 0.32 µM | > 150 µM | 11 µM
3 | O=C(O)Cc1cc(-c2cccc([N+](=O)[O-])c2)c(O)c(-c2nc3ccccc3[nH]2)c1 | 11 µM | – | > 150 µM | > 150 µM | > 150 µM
4 | CS(=O)(=O)c1cccc(-c2cc(CC(=O)O)cc(-c3cc4[nH]c(N)ccc-4n3)c2O)c1 | 7.4 µM | 16 | – | – | –
5 | Nc1ccc2[nH]c(-c3cc(CC(=O)O)cc(-c4cccc([N+](=O)[O-])c4)c3O)nc2n1 | 39 µM | – | > 150 µM | > 150 µM | > 150 µM
6 | Nc1ccc2[nH]c(-c3cc(CC(=O)O)cc(-c4cccc(O)c4)c3O)cc2n1 | 2.5 µM | 84 | – | – | –
7 | Nc1ccc2[nH]c(-c3cc(CC(=O)O)cc(-c4cccc([N+](=O)[O-])c4)c3O)cc2n1 | – | 400 | 3.5 µM | 44 µM | 120 µM

Further compounds by falling Ki (Coagulation factor VII), results first:

Row | Ki (Coagulation factor VII) | Selectivity ratio (Homo sapiens) | Ki (Coagulation factor X) | Ki (Prothrombin) | Ki (Trypsin) | Compound
8 | 2.4 µM | 67 | – | – | – | Nc1ccc2[nH]c(-c3cc(CC(=O)O)cc(-c4ccccc4)c3O)cc2n1
9 | 1.4 µM | > 100 | – | – | – | CN(C)CCNC(=O)NCc1cccc(-c2cc(CC(=O)O)cc(-c3cc4[nH]c(N)ccc-4n3)c2O)c1
10 | 0.02 µM | > 7000 | – | – | – | Nc1ccc2[nH]c(-c3cc(CC(=O)O)cc(-c4cccc(CNC(=O)Nc5ccccc5)c4)c3O)cc2n1
11 | 0.004 µM | – | 0.05 µM | 2.9 µM | 0.4 µM | N=C(N)c1ccc2[nH]c(-c3cc(CC(=O)O)cc(-c4cccc([N+](=O)[O-])c4)c3O)cc2c1
